Test results taken from patent publication US20080187492A1, “Drosophila Models For Diseases Affecting Learning and Memory” (priority 2004, published 2008).

Columns and labels:
Type in all cases: in vivo, Drosophila melanogaster
[1] = tested on: Rescue (dFMR1-3+wild type rescue fragment) flies; assay: Conditioned courtship: short-term memory at 60 minutes, virgin female target, Rescue flies; conditions: 5 day old; MPEP (20 μg/ml), NaCl (5 and 50 mM), LY341495 (400 nM)
Protocol: (§1) Short-term memory. The model was further extended to encompass short-term memory at 60 minutes after training. After the one hour training session with a previously mated female, the female is removed and the male is placed in a holding chamber for 60 minutes, then subsequently placed in a testing chamber with a virgin female target to assess short-term memory (FIG. 4C). […] CT-CT FS flies court just as vigorously at 60 minutes after training as naive CT-CT FS flies. […] The FS groups that were treated with MPEP in development alone, adulthood alone or in both development and adulthood display experience dependent reduction of courtship activity at 60 minutes after training when compared to group matched naives M-M FS, p<0.0001, CT-M FS, p<0.0001 and M-CT FS, p<0.0001. […] Additionally, flies were tested for ability to discriminate between virgin and previously mated females (FIG. 4D).
(§2) In order to examine short-term memory at 60 minutes after training, after the one hour training session with a previously mated female, the female is removed and the male is placed in a holding chamber for 60 minutes, then subsequently placed in a testing chamber with a virgin female (FIG. 9B). […] CT-CT FS flies court just as vigorously at 60 minutes after training as naive CT-CT FS flies. […] The FS groups that were treated with MPEP in development alone, adulthood alone or in both development and adulthood display experience dependent reduction of courtship activity at 60 minutes after training when compared to group matched naives M-M FS.

[2] = tested on: Rescue (dFMR1-3+wild type rescue fragment) flies; assay: Naive courtship behavior (courtship index toward virgin female), Rescue flies; conditions: for naive courtship: 5 day old
From the text: (§3) Learning and memory (cognitive abilities) can be examined in Drosophila by utilizing several available learning and memory paradigms. The most popular is a classical conditioning paradigm in which the flies learn to associate electric shocks with olfactory cues (Dudia et al, 1976; Davis, 1993; Tully, 1994). An alternative paradigm to study learning and memory in Drosophila is called conditioned courtship, wherein a male fly learns to modify his courtship behavior after experience with an unreceptive female; it is a multi-sensory paradigm involving associations from more then one sensory input (Siegel and Hall, 1979; for review see Hall, 1994). It is a more complex associative learning paradigm and was utilized to assay learning and memory in this article to elucidate the role of dFMR1 in learning and memory (Tompkins et al, 1980; Tompkins et al, 1982; Tompkins et al, 1983; Tompkins et al, 1984; Ackerman and Siegel, 1986). Courting male flies perform a characteristic sequence of behaviors: orienting toward and following the female, tapping her with his forelegs, vibrating one or both wings, licking her genitalia, and attempting copulation (Sturtevant, 1915; Bastock and Manning, 1955; Bastock, 1956). These behaviors are repeated with some variation until successful copulation occurs. Virgin females will generally respond by mating; however, recently mated females will be unreceptive and will not allow copulation to occur (Spieth, 1974), they display different behaviors (Bastock and Manning, 1955; Connolly and Cook, 1973) and have an altered, although somewhat overlapping, pheromonal profile (Cobb and Ferveur, 1996). The naive male will find a previously mated female to have a pheromonal repertoire that is less provocative then that of a virgin female target. A naive male paired with a mated female will initially court her, but his courtship activity soon decreases; after 1 hour of experience with the mated female, his courtship when subsequently paired with a virgin female remains depressed for 2-3 hours (Siegel and Hall, 1979). This effect is not a general suppression of all courtship activity since a male's tendency to court an immature male is not suppressed (Gailey et al, 1984). […] These behaviors are quantified as a courtship index (CI) which is defined as the percentage of time a male fly spends performing any of the six courtship steps toward a target female in a ten minute test period. A decrease in CI after training with a previously mated female is indicative of behavioral plasticity in the form of learning or memory.
(§4) Since we use female targets that are not etherized (therefore they are freely moving), and the w118 and dfmr1-3 flies may have slightly impaired visual acuity due to lack of eye pigmentation, and since visual inputs affect courtship behavior, all subsequent experiments were done utilizing only the genotypes Rescue: dfmr1-3+wild type rescue fragment, and FS: dfmr1-3+frame shifted rescue fragment. Both of these genotypes have more pigmentation and similar levels of eye pigmentation to each other. For FIGS. 4 and 5, a high concentration of MPEP (1,000 μg/ml) was used. For the remainder of the experiments the food was either control (CT) or exactly the same control food containing the appropriate concentration of MPEP (M). The position of the CT and the M are indicative of the point at which the group was on the particular food. The first letter indicates the food type that the larvae grew up on, and the second letter denotes the food type that the adult flies were placed on within four hours of eclosion, and for the four following days, until the day before testing when they were placed on fresh food.
In order to determine if MPEP can get into the Drosophila central nervous system (CNS) through feeding behavior, we mixed MPEP into the food at a concentration of 1,000 μg/ml ([…]). Males were raised on CT food and then placed on either CT or M food. […]

[3] = tested on: FS (dFMR1-3+frame shifted rescue fragment) flies; assay: Naive courtship behavior (courtship index toward virgin female), FS flies
From the text: as §3
as §4, with “and for the four following days, until the day before testing when they were placed on” left out
Naive males were placed in the training chamber for one hour with no female, and then placed with a virgin target female for a ten-minute interval. The naive courtship behavior was reduced by high MPEP concentration in Rescue (p<0.0001) and FS (p<0.0005) lines, and it was depressed to similar levels by high MPEP treatment in the Rescue and FS groups (FIG. 2A). […]

[4] = tested on: FS (dFMR1-3+frame shifted rescue fragment) flies; assay: Conditioned courtship: short-term memory at 60 minutes, virgin female target, FS flies
Protocol: as §1, §2

[5] = tested on: Rescue flies; assay: Short-term memory (60 mins) with mated female targets, Rescue flies
Protocol: (§5) Effects of drug treatment on short-term memory (60 mins) in flies lacking dfmr1 activity with mated female targets. Short-term (60 min.) memory was measured in Rescue and FS flies that were either fed control food or underwent various drug treatments as described below. Short-term memory was measured by placing a trained male in a holding chamber for 60 minutes (after being trained for one hour with a previously mated female), then subsequently placing him in a testing chamber with a mated female target for a ten-minute courtship interval (C.I.). This C.I. was compared to the C.I. obtained for naïve courtship of a previously mated female, i.e., C.I. during the first 10 minutes of the training session with a previously mated female. Additionally, for reference the C.I. during the last 10 minutes of the training period was also determined. Numbers of flies are indicated above each bar for all groups. The levels of significance are indicated as follows; *=p<0.05; **=p<0.005; ***=p<0.0001.
(§6) Restoration of short-term memory with mGluR antagonists. To establish that the failure to observe memory was not due to a problem with recognizing or processing the appropriate cues from the virgin female target, we used a modified version of the conditioned courtship paradigm where the male is paired with a mated female target subsequent to training (Kane et al., 1997; Joiner and Griffith, 1997; Joiner and Griffith, 1999; Kamashev et al., 1999). Again, with pharmacologic treatment it is necessary to utilize more then one compound to confirm the specificity of the target, so in this case we used four mGluR antagonists. […] It is also important to note that the robust deficit in synaptic plasticity in FS flies, with regard to memory, is a critical extension of the previous models of Fragile X syndrome in model organisms, since this is one of the most prominent aspects of the human disorder. Furthermore, we have shown that antagonism of the mGluRs can restore synaptic plasticity in the Drosophila model of Fragile X syndrome.

[6] = tested on: FS flies lacking dfmr1 activity; assay: Short-term memory (60 mins) with mated female targets, FS flies
Protocol: as §5, §6

[7] = 86 μM MPEP, 400 nM LY341495, 573 μM MPPG, 348 μM MTPG
[8] = 5 day old, 8.6 mM MPEP, 400 nM LY341495

With `[Cl-].[Na+]` [NaCl] the short term memory [1] was “did not affect short term memory”, the naive courtship ([2]; LiCl 5 mM, NaCl 5 mM in food) was “did not suppress naive courtship” and the naive courtship ([2]; LiCl 50 mM, NaCl 50 mM in food) was “suppressed naive courtship”. The naive courtship ([3]; 5 day old, NaCl at 5 or 50 mM in food) was “did not restore naive courtship” and the short term memory ([4]; 5 day old, NaCl (5 and 50 mM)) was “had no effect”.
With `CC(N)(C(=O)O)c1ccc(P(=O)(O)O)cc1` (racemic) [MPPG, (RS)-alpha-methyl-4-phosphoonophenylglycine] the “short-term memory, mated female target” value [5, 7] was “demonstrated intact short-term memory”, the “memory at 60 minutes post training, mated female target” value [5, 8] was “demonstrate memory at 60 minutes post training” and the naive courtship activity ([2]; 5 day old adults, 573 mM MPPG or 348 μM MTPG, p<0.0001 for both) was “significant decrease in courtship activity”. For the same compound, the naive courtship activity ([3]; 5 day old adults, 573 mM MPPG (p<0.0001) or 348 μM MTPG (p<0.005)) was “significant increase in courtship activity”, the short-term memory ([4]; 20-day-old, concentration not given) was “rescue short-term memory” and the “short-term memory, mated female target” value [6, 7] was “demonstrated restoration of short-term memory”. For the same compound, the “memory at 60 minutes post training, mated female target” value [6, 8] was “demonstrate memory at 60 minutes post training”.
